Laboratory results published in US4542219A, “Certain heterocyclic ammonio phosphate derivatives” (Takeda Chemical Industries, Ltd., priority 1981, dated 1985).
Like-named read-outs stand apart in the source and are kept apart here.

How the values were obtained:
Cryptococcus neoformans = experiment: Antimycotic activity, paper disk zone of inhibition; assay type: cell-based; details: 48 h, 3 mg/ml, 8 mm paper disk, 37° C. for 2 days, read-out: Diameter of inhibition zone
Description: The antimycotic activity values presented in Table 2 were assayed using Cryptococcus neoformans as the test organism. Thus, a paper disk (8 mm dia.) was dipped into an aqueous solution of the test compound (3 mg/ml), dried in the air and set in position on an agar medium. The medium was incubated at 37° C. for 2 days, at the end of which time the diameter of the zone of inhibition was measured. When the diameter of the zone was not larger than 8 mm, 8-10 mm, 10-20 mm and larger than 20 mm, the activity was judged as -, ±, + and ++, respectively.

Helminthosporium oryzae = experiment: Antifungal activity, serial dilution method; assay type: cell-based; details: Bipolaris oryzae
Tetrahymena pyriformis W = experiment: Antiprotozoal activity, broth dilution method; assay type: cell-based; details: 28° C. for 44 to 48 hours, pH 7.0
Description: The antiprotozoal activity values given in Table 2 were assayed using Tetrahymena pyriformis W as the test organism and an assay medium composed of 20 g tryptose peptone (Difco), 1 g yeast extract, 2 g glucose, 1000 ml distilled water and 10 ml 1 M phosphate buffer, pH 7.0. Thus, the strain was incubated at 28° C. for 44 to 48 hours and the minimal inhibitory concentration (MIC) of the compound (I) was determined by the broth dilution method.

[1] = system: human promyelocytic leukemia cell HL-60; experiment: Cell proliferation inhibition and differentiation induction, human promyelocytic leukemia cell HL-60 (Test Example 1): proliferation; assay type: cell-based; details: HL-60, 120 h, 5 days' culture, read-out: Cell proliferation inhibitory activity GD50
Description: The cell proliferation inhibitory activity (GD50) and differentiation inducing activity of the compound of this invention against human promyelocytic leukemia cell HL-60 are shown in Table 1. The assays were performed by the method described for example in R. Gallo et al, Blood. vol. 54, No. 3, 713 (1979).

Botrytis cinerea = experiment: Antifungal activity, serial dilution method; assay type: cell-based
Aspergillus niger = experiment: Antifungal activity, serial dilution method; assay type: cell-based
Pyricularia oryzae = experiment: microbe, parasite or virus in culture; assay type: cell-based
Sclerotinia sclerotiorum = experiment: Antifungal activity, serial dilution method; assay type: cell-based; details: kidney bean stem rot, 1% glucose-bouillon agar
Penicillium niger = experiment: Antifungal activity, serial dilution method; assay type: cell-based
[2] = system: Helminthosporium sigmordeum; experiment: Antifungal activity, serial dilution method; assay type: cell-based
[3] = system: Colletotrichum lagenarium; experiment: Antifungal activity, serial dilution method; assay type: cell-based; details: Colletotrichum orbiculare
Saccharomyces cerevisiae = experiment: Antifungal activity, serial dilution method; assay type: cell-based
[4] = Hemolysis test (method of Gottfried et al); assay type: cell-based; details: erythrocytes; in the presence of 5% human albumin; read-out: 50% hemolytic concentration
Description: The compound (I) is of relatively low toxicity and has generally low hemolytic activity. […] In these compounds (I), the influence of the length of chain R^1 varies with the other moiety of the molecule.

MM46 mammarian carcinoma = experiment: Antitumor activity against MM46 mammarian carcinoma; assay type: in vivo, C3 H/He mice; details: 250 μg/mouse/day, once daily, eight days in total; control average 14.2 days
Description: MM46 mammarian carcinoma cells (1×10^5) was transplanted intraperitoneally to each of five C3 H/He mice group. From five days to two days before the transplantation and from two day to five days after the transplantation, eight days in total. 250 μg/mouse/day of the test compound was administered to the test group, once daily. Survival period of three of the test group was not less than 60 days, and that of the remaining two was 23 days in average. On the other hand, the average survival period of mice of the control group was 14.2 days.

sarcoma 180 = experiment: Antitumor activity against sarcoma 180; assay type: in vivo, ICR mice; details: 500 μg/mouse
[5] = gray mold, 1% glucose-bouillon agar, read-out: MIC
[6] = black mold, 1% glucose-bouillon agar, read-out: MIC
[7] = blue mold, 1% glucose-bouillon agar, read-out: MIC
[8] = rice stem rot, 1% glucose-bouillon agar, read-out: MIC
[9] = cucumber anthracnose, 1% glucose-bouillon agar, read-out: MIC
[10] = brewer's yeast, 1% glucose-bouillon agar, read-out: MIC

Structure (SMILES)	zone of inhibition at 3000 µg/mL (Cryptococcus neoformans)	MIC (Helminthosporium oryzae)	MIC (Tetrahymena pyriformis W)	IC50 [1]	MIC (Pyricularia oryzae)	MIC (Sclerotinia sclerotiorum)	MIC (Aspergillus niger; [6])	other results
CCCCCCCCCCCCCCOCCOP(=O)([O-])OCC[N+](C)(C)C [Production Example 1, 2-Tetradecyloxyethyl 2-trimethylammonioethyl phosphate]	> 20 mm	12.5 µg/mL	0.4 µg/mL	3.8 µg/mL	3.12 µg/mL	50 µg/mL		MIC (Botrytis cinerea): 12.5 µg/mL; MIC (Aspergillus niger): 12.5 µg/mL; MIC (Penicillium niger): 12.5 µg/mL; MIC [2]: 3.12 µg/mL; MIC [3]: 3.12 µg/mL; MIC (Saccharomyces cerevisiae): < 3.12 µg/mL
CCCCCCCCCCCCCOCCOP(=O)([O-])OCC[N+](C)(C)C [Production Example 2, 2-Tridecyloxyethyl 2-trimethylammonioethyl phosphate]	> 20 mm	6.25 µg/mL	0.4 µg/mL		6.25 µg/mL	12.5 µg/mL	12.5 µg/mL	MIC (Botrytis cinerea; [5]): 12.5 µg/mL; HC50 [4]: ~80 µg/mL; MIC (Penicillium niger): 25 µg/mL; MIC [2]: 6.25 µg/mL; MIC [3]: 3.12 µg/mL; MIC (Saccharomyces cerevisiae): 6.25 µg/mL
CCCCCCCC/C=C\CCCCCCCCOCCOP(=O)([O-])OCC[N+](C)(C)C [Production Example 3, 2-Oleyloxyethyl 2-trimethylammonioethyl phosphate]	> 20 mm	6.25 µg/mL	0.4 µg/mL		1.56 µg/mL	100 µg/mL	25 µg/mL	MIC (Botrytis cinerea; [5]): 3.12 µg/mL; MIC (Penicillium niger; [7]): 50 µg/mL; MIC [2]: 6.25 µg/mL; MIC [3]: 6.25 µg/mL; MIC (Saccharomyces cerevisiae): 12.5 µg/mL
CCCCCCCCCCCCOCCOP(=O)([O-])OCC[N+](C)(C)C [Production Example 4, 2-Dodecyloxyethyl 2-trimethylammonioethyl phosphate]	10 to 20 mm	12.5 µg/mL	0.4 µg/mL		12.5 µg/mL	100 µg/mL	25 µg/mL	MIC (Botrytis cinerea; [5]): 25 µg/mL; MIC (Penicillium niger; [7]): 25 µg/mL; MIC [2, 8]: 25 µg/mL; MIC [3, 9]: 6.25 µg/mL; MIC (Saccharomyces cerevisiae; [10]): 25 µg/mL
CCCCCCCCCCCCCCOCCOP(=O)(O)OCCN [Production Example 5, 2-Tetradecyloxyethyl 2-aminoethyl phosphate]	8 to 10 mm	> 100 µg/mL	4 µg/mL		25 µg/mL	100 µg/mL	25 µg/mL	MIC (Botrytis cinerea): 50 µg/mL; MIC (Penicillium niger; [7]): 50 µg/mL; MIC [2, 8]: > 100 µg/mL; MIC [3, 9]: 25 µg/mL; MIC (Saccharomyces cerevisiae; [10]): 25 µg/mL
CCCCCCCCCCCCCCCCCCOCCOP(=O)(O)OCCN [Production Example 6, 2-Octadecyloxyethyl 2-aminoethyl phosphate]	8 to 10 mm		> 4 µg/mL	3 µg/mL				
CCCCCCCCCCCCCCCOCCOP(=O)([O-])OCC[N+](C)(C)C [Production Example 7, 2-Pentadecyloxyethyl 2-trimethylammonioethyl phosphate]	10 to 20 mm		≤ 1 µg/mL	1.2 µg/mL				
CCCCCCCCCCCCCCCOCCOP(=O)([O-])OCC[n+]1ccccc1 [Production Example 8, 2-Pentadecyloxyethyl 2-pyridinioethyl phosphate]	10 to 20 mm		4 µg/mL	3.4 µg/mL				
CCCCCCCCCCCCCCOCCOP(=O)([O-])OCC[n+]1ccccc1 [Production Example 9, 2-Tetradecyloxyethyl 2-pyridinioethyl phosphate]	> 20 mm		4 µg/mL	4.1 µg/mL				
CCCCCCCCCCCCCCCCCCOCCOP(=O)([O-])OCC[n+]1ccccc1 [Production Example 10, 2-Octadecyloxyethyl 2-pyridinioethyl phosphate]			4 µg/mL	1.5 µg/mL				Average survival period of the remaining two of the test group (five mice) (MM46 mammarian carcinoma): 23 days; Survival period of three of the test group (five mice) (MM46 mammarian carcinoma): not less than 60 days; survival rate of the test group against the control group T/C (sarcoma 180): 310%; Average survival period (sarcoma 180; four days before ip transplantation of 1×10^5 cells, control 9.6 days): 29.8 days
CCCCCCCCCCCCCCOCCOP(=O)([O-])OCC[N+](C)(C)CCCC(=O)OC [Production Example 11, 2-Tetradecyloxyethyl 2-[N,N-dimethyl-N-(3-methoxycarbonylpropyl)]ammonioethyl phosphate]			4 µg/mL	2.5 µg/mL				
CCCCCCCCCCCCCCOCCOP(=O)([O-])OCC[N+](C)(C)CCCC(=O)O [Production Example 12, 2-Tetradecyloxyethyl 2-[N-(3-carboxypropyl)-N,N-dimethyl]ammonioethyl phosphate]			0.4 µg/mL	1.5 µg/mL				
